Columns and labels:
[1] = system: lung cancer cell lines; experiment: NK cell activation against lung cancer cell lines vs K562 / Raji; assay type: cell-based, human
Description: ADCC was measured in a flow cytometry assay by evaluating degranulation via CD107a (lysosomal-associated membrane protein LAMP-1) and intracellular IFNγ production. Upon thawing, normal donor and patient-derived PBMCs or ascites cells were rested overnight (37° C., 5% CO2) in RPMI 1640 media supplemented with 10% fetal calf serum (RPMI-10). The next morning, they were suspended with tumor-target cells or media after washing twice with RPMI-10. Cells were then incubated with TriKEs or controls for 10 min at 37° C. Fluorescein isothiocyate (FITC)-conjugated anti-human CD107a monoclonal antibody (BD Biosciences, San Jose, CA, USA) was then added. Following an hour 37° C. incubation, GolgiStop (1:1500, BD Biosciences) and GolgiPlug (1:1000, BD Biosciences) were added for 3 h. After washing with phosphate buffered saline, the cells were stained with PE/Cy 7-conjugated anti-CD56 mAb, APC/Cy 7-conjugated anti-CD16 mAb, and PE-CF594-conjugated anti-CD3 mAb (BioLegend, San Diego, CA, USA). Cells were incubated for 15 min at 4° C., washed, and fixed with 2% paraformaldehyde. Cells were then permeabilized using an intracellular perm buffer (BioLegend) to evaluate production of IFNγ through detection via aBV650 conjugated anti-human IFNγ antibody (BioLegend). Samples were washed and evaluated in an LSRII flow cytometer (BD Biosciences, San Jose, CA, USA). […]

[2] = system: NK cells (CD45+CD56+CD3−) in PBMCs, with or without OVCAR8; experiment: Mass cytometry (CyTOF) of TriKE activated NK cells; assay type: cell-based, human
Description: FIG. 31 illustrates high dimensional analysis of cam1615B7-H3 activated NK cells. Concatenated analysis of three donors PBMCs incubated alone, with 30 nM cam1615B7-H3 TriKE, with OVCAR8 tumor (2:1 E:T), or with 30 nM cam1615B7-H3 TriKE and OVCAR8 tumor. Data was visualized in viSNE (Cytobank) and gated on CD45+CD56+CD3-cells.
For mass cytometry (CyTOF) studies, PBMCs were incubated alone or with OVCAR8s at a 2:1 ratio+/−cam1615B7-H3 (30 nM) for 24 h. After harvesting samples, cells were counted, and viability was measured using trypan blue exclusion. Two hundred thousand cells from each donor were aliquoted into 5-mL polystyrene U-bottom tubes for barcoding and CyTOF staining. Cells were stained with Cisplatin (Fluidigm Product #201064, San Francisco, CA, USA), followed by barcoding using the Cell-ID 20-Plex Pd Barcoding Kit (Fluidigm Product #201060). After barcoding, all cells were combined into a single 5-mL polystyrene U-bottom tube and incubated in the surface marker antibody cocktail for 30 min at 4° C.
Following surface staining, cells were then fixed using 2% PFA. For intracellular staining, cells were permeabilized by incubation with Triton X 0.1% for 5 min at room temperature, followed by incubation with intracellular antibody cocktail for 30 min at 4° C. Stained cells were then incubated overnight with Cell-ID Intercalator (Fluidigm Product #201192A). The following morning cells were washed and run on the CyTOF 2 instrument. Wash steps were completed using either Maxpar PBS (Fluidigm Product #201058), Maxpar Cell Staining Buffer (Fluidigm Product #201068), or Millipure Water at 1600 RPM for 4 min. For custom tagged antibodies: Conjugation of heavy metals to a specific ScFv is conducted using the Maxpar antibody labeling kit (Fluidigm). The protocol involves partial antibody reduction using 0.5 M TCEP: Pierce Bond-Breaker TCEP Solution (Thermo Scientific Product #77720, Waltham, MA, USA), as well as comprehensive buffer exchange using centrifugal filter units of both 3 kDa and 50 kDa size (Millipore Product #UFC500396, UFC505096, Burlington, MA, USA). After conjugation of the antibody, yield is measured, and the final reagent is stored in antibody stabilizer (Boca Scientific Product #131 000, Westwood, MA, USA). The reagent is then titrated and verified against known flow cytometry antibodies. Data from the three donors was concatenated. FCS file concatenation was completed with a combination of Cytobank and Flowjo. All Visne analyses were carried out in Cytobank.
As illustrated in FIG. 31 high dimensional analysis of cam1615B7-H3 TriKE activated cells was performed. To broadly evaluate the phenotypic and functional effects of TriKE activation on NK cells, a custom, 42 parameter, CyTOF (mass cytometry) NK cell targeted panel was used. PBMCs were left untreated, incubated with cam1615B7-H3 TriKE for 24 h, incubated with tumor (OVCAR8s) for 24 h, or incubated with tumor and cam1615B7-H3 TriKE for 24 h. Cells were then stained, fixed, and run on a CyTOF2. Samples (three biologic replicates per condition) were concatenated, and data was visualized with viSNE, which uses all expression information to display localization of individual cells in a 2D plot in order to explore the multidimensional data (FIG. 31). The data indicated no changes in distributions of CD56^brights versus CD56^dims. Activation markers CD25 and CD69 were both induced with TriKE treatment, as was the chemokine receptor CXCR3. Granzyme B, involved in cytolytic activity of NK cells, was primed on effectors+TriKE, but in the presence of tumor targets (effectors+tumor+TriKE) these Granzyme B high cells disappeared, likely as a cause of ADCC driven specific degranulation. […] This also seemed to be the case with NKG2D, but the natural cytotoxicity receptors (NCR: NKp30, NKp44, and NKp46) were less affected.

[3] = effectors exposed to tumor in the presence of TriKE

cam1615B7-H3: second-generation TriKE: humanized camelid anti-CD16 VHH, human wild-type IL-15, anti-B7-H3 mAb 376.96 scFv; SEQ ID NO:1
NK cell degranulation and IFNγ production against lung cancer cells vs K562 targets alone [1]: higher than that seen when NK cells are incubated with K562 targets alone
B7-H3 specificity of activation against lung cancer cell lines ([1]; vs B7-H3− Raji cells): specific to B7-H3 expression
distributions of CD56brights versus CD56dims ([2]; 30 nM, 24 h): no changes
CD25 expression ([2]; 30 nM, 24 h, TriKE treatment): induced
CD69 expression ([2]; 30 nM, 24 h, TriKE treatment): induced
CXCR3 expression ([2]; 30 nM, 24 h, TriKE treatment): induced
TIGIT [2, 3]: did not seem as affected
activating KIR (KIR2DS1 and KIR2DS4) expression [2, 3]: reduced in expression
inhibitory KIR (KIR2DL1, KIR2DL3 and KIR3DL1) expression [2, 3]: reduced in expression
natural cytotoxicity receptors (NKp30, NKp44, NKp46) [2, 3]: less affected
Granzyme B ([2]; effectors+TriKE): primed
Granzyme B high cells ([2]; effectors+tumor+TriKE): disappeared
